Test results published in patent publication US7297712B2, “Cationic amphiphiles for intracellular delivery of therapeutic molecules and its composition, process and method of treatment” (Council of Scientific and Industrial Research, priority 2002, dated 2007).

Test system: COS-1 cells
Assay: Cell transfection, β-galactosidase reporter gene activity
Format: cell-based
Conditions: pCMV β-gal plasmid 0.15 μg, lipid:DNA charge ratios 0.1:1 to 9:1, compared with DMRIE, FIG. 1
Method: Similar examples of plasmid include PGL-2 and PGL-3 of Promega and others.
Cell Transfection. COS-1 cells were seeded at a density of 15,000 cells/well in a 96-well plate eighteen hours before the transfection. 0.15 μg of plasmid DNA was complexed with varying amount of lipid (0.05-4.3 nmoles) in 13 μl of plain DMEM medium for 30 min. The charge ratios were varied from 0.1:1 to 9:1 (+/−) over this range of the lipid. The complex was diluted to 100 μl with plain DMEM and added to the wells. After 3 h of incubation, 100 μl of DMEM with 10% FCS was added to the cells. The medium was changed to 10% complete medium after 24 h and the reporter gene activity was estimated after 48 h. The cells were washed twice with PBS and lysed in 50 μl of lysis buffer (0.25 M Tris.HCl, pH 8.0 and 0.5% NP40). Care was taken to ensure complete lysis. The β-galactosidase activity per well was estimated by adding 50 μl of 2× substrate solution (1.33 mg/ml of ONPG, 0.2 M sodium phosphate, pH 7.15 and 2 mM magnesium chloride) to the lysate in a 96-well plate. Absorption at 405 nm was converted to β-galactosidase units by using calibration curve constructed with pure commercial β-galactosidase enzyme. The values of β-galactosidase units in replicate plates assayed on the same day varied by less than 30%. […]

| SMILES | in vitro transfection efficiency |
| --- | --- |
| CCCCCCCCCCCCCC[N+]1(CCCCCCCCCCCCCC)CC(O)C(O)C1 (stereo not drawn) [lipid 2, N,N-di-n-tetradecyl-3,4-dihydroxy pyrrolidinium chloride] | comparable to or better than that of DMRIE |

Test system: EtBr:pCMV β-gal complex (DNA)
Assay: Lipid:DNA interactions assay (ethidium bromide exclusion fluorescence)
Format: binding
Conditions: titration of EtBr:DNA complex with lipid, TE buffer pH 8.0, FIG. 2
Text: Lipid:DNA Interactions Assay. Intercalation-induced fluorescence increase and competition with cationic lipids to bind to DNA has made Ethidium Bromide (EtBr) an excellent tool to study cationic lipid-DNA interactions. To assess the representative lipid:DNA interactions for the cationic lipids of the present invention, we have titrated the EtBr:pCMV β-gal complex with increasing amounts of cationic lipids 1-5.
The extent of Et.Br binding to the DNA was monitored by the changes in the fluorescence. EtBr fluorescence was monitored in Hitachi 4500 fluorimeter by setting the excitation wavelength at 518 nm and emission wavelength at 585 nm. To one ml of TE buffer (pH 8.0), 0.78 nmoles of DNA and 2.5 nmoles of EtBr were added. The change in fluorescence was monitored after adding small volumes of lipids 1-5 to the EtBr:DNA complex. Arbitrary fluorescence values were recorded after allowing sufficient time for equilibration. […] Percent fluorescence was calculated considering the fluorescence value in the absence of lipid as 100.

| SMILES | lipid:DNA interaction (ability to exclude ethidium bromide from DNA) |
| --- | --- |
| CCCCCCCCCCCC[N+]1(CCCCCCCCCCCC)CC(O)C(O)C1 (stereo not drawn) [lipid 1, N,N-di-n-dodecyl-3,4-dihydroxy pyrrolidinium chloride] | interact poorly with DNA |
| CCCCCCCCCCCCCC[N+]1(CCCCCCCCCCCCCC)CC(O)C(O)C1 (stereo not drawn) [lipid 2, N,N-di-n-tetradecyl-3,4-dihydroxy pyrrolidinium chloride] | interact with DNA equally well up to lipid:DNA ratio of 1.25 or so |
| CCCCCCCCCCCCCCCC[N+]1(CCCCCCCCCCCCCCCC)CC(O)C(O)C1 (stereo not drawn) [lipid 3, N,N-di-n-hexadecyl-3,4-dihydroxy pyrrolidinium chloride] | interact with DNA equally well up to lipid:DNA ratio of 1.25 or so |
| CCCCCCCCCCCCCCCCCC[N+]1(CCCCCCCCCCCCCCCCCC)CC(O)C(O)C1 (stereo not drawn) [lipid 4, N,N-di-n-octadecyl-3,4-dihydroxy pyrrolidinium chloride] | interact poorly with DNA |
| CCCCCCCC/C=C\CCCCCCCC[N+]1(CCCCCCCCCCCCCCCCCC)CC(O)C(O)C1 (stereo not drawn) [lipid 5, N-n-octadecyl-N-oleyl-3,4 dihydroxy pyrrolidinium chloride] | interact poorly with DNA |
